{"source": "patent US7892780B2", "about": "“Method for screening antioxidant using mutant bacteria and chlorophyllide, and antioxidant screened by the method” (Industry-University Cooperation Foundation Sogang University, priority 2007, dated 2011)", "test_system": "Rhodobacter sphaeroides 2.4.1 SodB1 [KCTC 11069BP]", "experiment": "Antioxidant screening by growth of SodB1 mutant bacteria on chlorophyllide-added medium blocks or filter discs", "assay_type": "cell-based", "details": "sample dissolved in ethanol or dimethylsulfoxide, FIG. 5", "method": "Next, an antioxidant sample and SodB1 mutant bacteria were added to these medium blocks, or otherwise chlorophyllide (0.1 to 100 mM) was added directly to filter discs to which a desired concentration of an antioxidant candidate material was then added. Thereafter, multimeric protein-expressing SodB1 mutant bacteria, i.e. Rhodobacter sphaeroides 2.4.1 SodB1 [KCTC 11069BP], were plated on a Sistrom's minimal medium [20 mM potassium dihydrogen phosphate (KH2PO4), 3.8 mM ammonium sulfate ((NH4)2SO4), 34 mM succinic acid, 0.59 mM L-glutamic acid, 0.30 mM L-aspartic acid, 8.5 mM sodium chloride, 1.05 mM nitrilotriacetic acid, 1.2 mM magnesium chloride (MgCl2.6H2O), 0.23 mM calcium chloride (CaCl2.7H2O), 25 μM ferrous sulfate (FeSO4.7H2O), 0.16 μM ammonium molybdate ((NH4)6Mo7O24.4H2O), 4.7 μM EDTA, 38 μM zinc sulfate (ZnSO4.7H2O), 9.1 μM manganese sulfate (MnSO4.H2O), 1.6 μM copper sulfate (CuSO4.5H2O), 0.85 μM cobalt (II) nitrate (Co(NO3)2.6H2O), 1.8 μM boric acid (H3BO3), 8.1 μM nicotinic acid, 1.5 μM thiamine hydrochloride, and 41 nM biotin] (Sistrom, W. R, 1962. J. Gen. Microbiol. 28: 607-616).\nAs a result, when there was an antioxidant activity in the antioxidant candidate material to be screened, cells grew only on the medium blocks or around filter discs and thus red bacteria were observed. […]", "data": [{"compound": "tocopherol", "values": [{"measurement": "cell growth of SodB1 mutant bacteria / prevention of cell death (antioxidant activity)", "result": "partial cell growth"}]}, {"compound": "O=c1c(O)c(-c2ccc(O)c(O)c2)oc2cc(O)cc(O)c12", "note": "[quercetin]", "values": [{"measurement": "cell growth of SodB1 mutant bacteria / prevention of cell death (antioxidant activity)", "result": "partial cell growth"}]}]}
